In patent US5925769A, “Acetylenic 1,5-diarylpyrazoles as antiinflammatory agents” (Ortho Pharmaceutical, Corp., priority 1998, dated 1999):

Legend:
CO = experiment: Procedure IV: ex vivo eicosanoid synthesis assay using dogs, CO (TxB2); type: in vivo; conditions: dog, oral, 5 mg/kg
Experimental: (§1) Adult beagle or mongrel dogs (10-15 kg) of either sex were fasted overnight prior to the initiation of each experiment. The forelimb was clipped and swabbed with an alcohol prep (70% isopropanol). Blood was drawn by venipuncture into syringes containing lithium heparin (Starstead, Newton, N.C.) immediately prior to administration of compound or vehicle and then at various intervals following dosing. The test compound was administered orally as a suspension in 0.5% methocel. At various times after dosing, blood samples were drawn and placed on an electric rocker platform to assure complete and continuous mixing. White blood cell (wbc) counts were performed using a Sysmex hematology analyzer. This was done in an effort to normalize the number of leukocytes to be stimulated with calcium ionophore. A 1.0 mL aliquot of whole blood was challenged with 50 μL of a 2.6×10^-5 M solution of calcium ionophore A23187 (Calbiochem, La Jolla, Calif.) prepared in DMSO and diluted in HBSS. After a 15 minute incubation at 37° C., the reaction was stopped by placing the samples in an ice bath (4° C.) for 5 minutes and then centrifuging at 11,000×g for 5 minutes to separate the plasma fraction from blood cells. The plasma fraction was removed, diluted in an appropriate buffer, and analyzed for the presence of LTB4 and TxB2 by standard RIA techniques.

[1] = molecular target: T1, Sheep seminal vesicle (SSV) cyclooxygenase (Ovis aries, UniProt P05979); experiment: Procedure I: inhibition of sheep seminal vesicle (SSV) cyclooxygenase; type: biochemical; conditions: SSV cyclooxygenase; read-out: Proc. I IC50
T1 construct: Sheep seminal vesicle (SSV) cyclooxygenase (95% pure); purchased Biomol (Plymouth Meeting, PA); host or cells: sheep seminal vesicle
T1 sequence (P05979 25-600): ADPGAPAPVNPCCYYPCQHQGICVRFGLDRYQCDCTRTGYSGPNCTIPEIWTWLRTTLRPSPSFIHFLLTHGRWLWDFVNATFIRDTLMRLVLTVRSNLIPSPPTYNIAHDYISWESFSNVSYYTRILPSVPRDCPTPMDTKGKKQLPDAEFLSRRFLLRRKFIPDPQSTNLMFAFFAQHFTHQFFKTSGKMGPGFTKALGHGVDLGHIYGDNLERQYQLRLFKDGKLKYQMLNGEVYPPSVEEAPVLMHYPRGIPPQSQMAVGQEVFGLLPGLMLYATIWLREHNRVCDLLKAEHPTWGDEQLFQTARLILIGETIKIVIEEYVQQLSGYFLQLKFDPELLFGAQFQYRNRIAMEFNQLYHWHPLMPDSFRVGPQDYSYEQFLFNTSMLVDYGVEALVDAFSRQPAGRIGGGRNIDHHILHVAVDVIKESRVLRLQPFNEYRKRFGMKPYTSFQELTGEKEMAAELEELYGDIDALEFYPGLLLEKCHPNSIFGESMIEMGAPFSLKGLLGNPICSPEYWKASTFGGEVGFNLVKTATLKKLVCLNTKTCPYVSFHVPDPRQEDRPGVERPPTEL
Outline: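 Sheep seminal vesicle cyclooxygenase was preincubated with compound for 5 min at 37° C, then reacted with [1-14C]-arachidonic acid for 20 min. After formic acid stop and chloroform extraction, radioactive prostaglandin products were separated by TLC and scanned. Inhibition was derived from areas under the curve with and without compound.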

5-LO [2] = molecular target: T2, 5-LO (Rattus norvegicus, UniProt P12527); experiment: Procedure III: 5-LO (5-HETE) in intact RBL-1 cells; type: cell-based; conditions: calcium ionophore A 23187, read-out: Proc. III 5-LO IC50
T2 construct: the supernatant was saved as the source of enzymes; endogenous in cells; host or cells: RBL-1 (rat basophilic leukemia) cells
T2 sequence (P12527 1-673): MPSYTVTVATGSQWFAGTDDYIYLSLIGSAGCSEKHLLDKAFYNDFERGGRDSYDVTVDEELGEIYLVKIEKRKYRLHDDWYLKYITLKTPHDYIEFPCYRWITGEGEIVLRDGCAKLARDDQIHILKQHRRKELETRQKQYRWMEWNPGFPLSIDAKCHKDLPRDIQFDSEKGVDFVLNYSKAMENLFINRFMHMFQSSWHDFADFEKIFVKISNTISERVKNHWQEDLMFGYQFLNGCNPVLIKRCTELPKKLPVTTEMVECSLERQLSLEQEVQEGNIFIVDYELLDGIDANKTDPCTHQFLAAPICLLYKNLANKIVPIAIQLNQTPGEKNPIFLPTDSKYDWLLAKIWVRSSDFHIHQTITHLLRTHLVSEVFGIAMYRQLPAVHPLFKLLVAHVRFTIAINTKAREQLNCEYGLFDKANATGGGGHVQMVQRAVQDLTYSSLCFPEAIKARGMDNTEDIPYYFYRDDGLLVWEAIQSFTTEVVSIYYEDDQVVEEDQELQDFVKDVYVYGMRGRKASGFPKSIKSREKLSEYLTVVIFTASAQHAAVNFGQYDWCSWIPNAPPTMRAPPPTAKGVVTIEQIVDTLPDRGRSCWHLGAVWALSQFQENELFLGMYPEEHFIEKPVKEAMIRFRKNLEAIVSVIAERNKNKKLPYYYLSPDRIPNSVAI
Outline: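 Intact RBL-1 cells at 1×10^5 cells/mL in HBSS were preincubated with vehicle or drug, pelleted and resuspended, then given 1-^14C-AA. 5-HETE (5-LO) and PgD2 (CO) were separated by TLC after acidification/extraction and quantified by radioimaging; IC50 from regression curve fit.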

5-LO [3] = experiment: Procedure IV: ex vivo eicosanoid synthesis assay using dogs, 5-LO (LTB4); type: in vivo; conditions: dog, oral, 5 mg/kg
Experimental: as §1

5-LO [4] = molecular target: T2, 5-LO; experiment: Procedure II: 5-LO activity (5-HETE) in broken RBL-1 cells (homogenate supernatant); type: biochemical; conditions: RBL-1 broken cell supernatant; read-out: Proc. II 5-LO IC50
Outline: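 Supernatant from rat RBL-1 homogenate (9,220×g) was pre-incubated 5 min at 37 °C with 2 mM CaCl2 and compound or 1% DMSO, then with 1-^14C-arachidonic acid for 20 min at 37 °C.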

IC50 [1]: 2540 nM
IC50 (5-LO [2]): 8100 nM
IC50 (5-LO [4]): 110 nM
Structure (SMILES): COc1ccc(-n2nc(C#CC(C)N(O)C(C)=O)cc2-c2ccc(Cl)cc2)cc1 (stereo not shown) [Cpd 35, N-acetyl-N-(1-(5-(4-chlorophenyl)-1-(4-methoxyphenyl)pyrazol-3-yl)-1-butyn-3-yl)hydroxylamine]
% inh CO (CO; 2 h): 92%
% inh CO (CO; 4 h): 75%
% inh CO (CO; 6 h): 81%
% inh CO (CO; 8 h): 62%
% inh CO (CO; 24 h): 68%
% inh 5-LO (5-LO [3]; 2 h): 34%
% inh 5-LO (5-LO [3]; 4 h): 20%
% inh 5-LO (5-LO [3]; 6 h): 26%
% inh 5-LO (5-LO [3]; 8 h): 31%
% inh 5-LO (5-LO [3]; 24 h): 12%
